The record followed here is US20030134859A1 (SANKYO COMPANY, LIMITED, priority 2000, published 2003).

The subject of the first experiment is Rat white adipocytes. The experiment is described as follows: Inhibition of the differentiation of adipocytes (Oil Red O). In kind it is cell-based. Particulars: 100 nM test compound; 5 days; Oil Red O ABS550; control = 100%, blank = 0%; Table 3. On the procedure: Rat white adipocytes contained in the white adipocyte culture kit purchased from HOKUDO were used. As the medium for proliferation and for differentiation-inducing, the medium contained in the white adipocyte culture kit purchased from HOKUDO was used. The cells in the present experiment were cultured in a CO2 incubator (37° C., 95% R.H., 5% CO2).
Immediately after arrival of the purchased cells, all medium for transportation was discarded and replaced with 5 ml of proliferation medium (/25 cm^2-flask) and the cells were cultured for one day. Then, a cell suspension was prepared with proliferation medium so as to be 83,000 cells/mL, and the cell suspension was plated into a type I 96-well collagen-coated microplate (SUMITOMO BAKELITE CO., ltd.) so as to be 5,000 cells/well (60 μL/well).
On the next day, all the proliferation medium was discarded and replaced with 147 μL/well of differentiation-inducing medium. Further, 1) in the group treated with the test compound, 3 μL/well of the solution, in which a test compound (100 μM) was dissolved in DMSO solution and diluted with differentiation-inducing medium by 20 times (final concentration of the test compound: 100 nM, final concentration of DMSO solution: 0.1% (v/v)), were added to the well where the cells were plated. 2) In the control group, 3 μL/well of DMSO solution that was diluted with differentiation-inducing medium by 20 times (final concentration of DMSO: 0.1% (v/v)) were added to the well where the cells were plated. Further, 3) in the blank group, 3 μL/well of DMSO solution that was diluted with differentiation-inducing medium by 20 times (final concentration: 0.1% (v/v)), was added to the blank well.
After culturing for 5 days, all differentiation-inducing medium was discarded and replaced with 60 μL of 10% (v/v) formaldehyde solution (for fixation) in each well and the cells were kept stationary for 20 min at room temperature. After this, the fixative solution was discarded and replaced with 60 μL of 0.2% (v/v) Triton X (Sigma-Aldrich Japan K. K.) solution in each well and kept stationary for 5 min at room temperature. Then all Triton X solution was discarded and replaced with 60 μL of 60% (v/v) isopropanol solution containing dissolved Oil Red O (Sigma-Aldrich Japan K. K.) so as to be 0.3%, which was adipose tissue staining solution, and the well was left stationary for 10 min at room temperature. After the adipose tissue staining solution was discarded, the well was washed twice with 60 JIL of 60% isopropanol solution. Then, 100 μL of the DMSO solution were added to each well and stirred for 5 min at room temperature, The absorbance was measured at 550 nm (ABS550) with a multi-plate reader (LabSystems), and the stained amount with Oil Red O was determined. The measured level at ABS550 in the control group was defined as 100%, while the level at ABS550 in the blank group was defined as 0%. The differentiation rate (%) of the adipocytes treated with the test compound was calculated.
For the molecule `CC(C)(C)OC(=O)Nc1ccc2nc(NC(=O)c3cc([N+](=O)[O-])ccc3Cl)sc2c1` [Example 260, N-[(6-tert-Butoxycarbonylamino)benzothiazol-2-yl]-(2-chloro-5-nitrophenyl)carboxamide], the “Rate of Differentiation (%)” value turned out to be 84.6%. Still for that read-out and setting: the same measure for “N-[4-(3-Methanesulfonylaminophenyl)thioazol-2-yl]-(2-chloro-5-nitrophenyl)carboxamide [Example 278]”: 68.6%.

Still in this experiment, the particulars now being: Rattus norvegicus, Adipocyte, 120 h, 100 nM test compound; 5 days; Oil Red O ABS550; control = 100%, blank = 0%; Table 3; read-out: Rate of Differentiation (%).
In the case of `O=C(Nc1ccc(C(O)(C(F)(F)F)C(F)(F)F)cc1)c1cc([N+](=O)[O-])ccc1Cl` [Example 237, N-[4-(2,2,2-Trifluoro-1-hydroxy-1-trifluoromethylethyl)phenyl]-(2-chloro-5-nitrophenyl)carboxamide], the activity at 0.1 µM is 46.9%.

For `CN1c2ccccc2N=C(c2ccc(NC(=O)c3cc([N+](=O)[O-])ccc3Cl)cc2)c2cc3c(cc21)C(C)(C)CCC3(C)C` [Example 240, N-[4-(5,7,7,10,10-Pentamethyl-7,8,9,10-tetrahydro-5H-5,13-diazabenzo[4,5]cyclohepta[1,2-b]naphthalen-12-yl)phenyl]-(2-chloro-5-nitrophenyl)carboxamide], the activity at 0.1 µM was 35.2%.

For `NC(=O)Nc1ccc(-c2ccc(NC(=O)c3cc([N+](=O)[O-])ccc3Cl)cc2)cc1` [Example 243, N-[4-[4-(Aminocarbonylamino)phenyl]phenyl]-(2-chloro-5-nitrophenyl)carboxamide], the activity at 0.1 µM turned out to be 41.1%. The same measure, in the same setting: the same measure for `COc1cccc(NC(=O)Nc2ccc(-c3ccc(NC(=O)c4cc([N+](=O)[O-])ccc4Cl)cc3)cc2)c1` [Example 247, N-[4-[4-[(3-Methoxyphenyl)aminocarbonylamino]phenyl]phenyl]-(2-chloro-5-nitrophenyl)carboxamide]: 54%; for `O=C(NC(=S)Nc1ccc(-c2ccc(NC(=O)c3cc([N+](=O)[O-])ccc3Cl)cc2)cc1)c1ccccc1` [Example 250, N-[4-[4-(Benzoylaminothiocarbonylamino)phenyl]phenyl]-(2-chloro-5-nitrophenyl)carboxamide]: 40.8%; for `Nc1nc(-c2ccc(NC(=O)c3cc([N+](=O)[O-])ccc3Cl)cc2)cs1` [Example 255, N-[4-(2-Aminothiazol-4-yl)phenyl]-(2-chloro-5-nitrophenyl)carboxamide]: 55%.

With `CC(=O)Nc1nc(-c2ccc(NC(=O)c3cc([N+](=O)[O-])ccc3Cl)cc2)cs1` [Example 265, N-[4-(2-Acetylaminothiazol-4-yl)phenyl]-(2-chloro-5-nitrophenyl)carboxamide], the activity at 0.1 µM worked out at 80.8%. Same read-out and setting: the same measure for `CC(=O)Nc1nc(-c2cccc(NC(=O)c3cc([N+](=O)[O-])ccc3Cl)c2)cs1` [Example 266, N-[3-(2-Acetylaminothiazol-4-yl)phenyl]-(2-chloro-5-nitrophenyl)carboxamide]: 63.5%; for `CCOC(=O)NC(=S)NCCc1ccc(NC(=O)c2cc([N+](=O)[O-])ccc2Cl)cc1` [Example 272, N-[4-(2-Ethoxycarbonylaminothiocarbonylaminoethyl)phenyl]-(2-chloro-5-nitrophenyl)carboxamide]: 41.7%; for `O=C(Nc1cccc(CCO)c1)c1cc([N+](=O)[O-])ccc1Cl` [Example 275, N-[3-(2-Hydroxyethyl)phenyl]-(2-chloro-5-nitrophenyl)carboxamide]: 47.9%.
